Patent US4302448A, “Secretin preparations with intensified and protracted action, process for their manufacture, their use as well as dihydroxybenzoyl-L-tyrosine” (Hoechst Aktiengesellschaft, priority 1979, dated 1981)
Where a SMILES comes first, the peptide text is derived from it. Side-chain parts run from the residue outwards. [ ]: non-standard residue; d: D form. The star is where a group is joined. Cbz = O=C(OCc1ccccc1)*

Test system: Pancreatic juice secretion of the rat
Assay: Pancreatic juice secretion of the rat after subcutaneous administration of secretin with depot bodies
Type: in vivo
Conditions: rat, subcutaneous, 5 CU/kg secretin + 10 mg depot body/animal; for Δ% vs. control (percentage by which the pancreatic secretion is above the basal secretion after 5 hours): control=100%, measure of depot effect; for Rel. Intensity of effect over 5 hours (total pancreatic juice secretion over 5 hours as compared with control): control (0.9% of NaCl)=1
Protocol: Secretin preparations for subcutaneous application which contained the depot bodies specified in the following Table were tested in animal experiments. In the experimental procedure chosen, 5 to 8 male rats weighing 300 to 500 g each are administered subcutaneously 5 CU/kg of secretin (CU means clinical unit) and 10 mg of the depot body to be tested each in aqueous solution or suspension.
The animals remain without food for 18 hours prior to the test, but they are given water ad libitum. Under urethane anaesthesia (5 ml/kg i.m. of 25% urethane) the abdomen is opened by median section after tracheotomy, and the pylorus is ligated. The ductus choledochus is tied off in its proximal part near the porta hepatis, and the bile is led into the duodenum via a polyethylene tube of a diameter of […]. A cannula or catheter is inserted into the distal part of the bile duct, into which the numerous pancreatic ducts open, immediately before it opens into the duodenum, and the volume of the secretion running off is measured in 60 minute intervals. Following a preliminary run of 60 minutes the preparations are administered.
L means the compound known from literature and characterized by the melting point, optionally UV, IR or NMR. A to C relate to the preparation according to Example 1, process A to C. These compounds were characterized by ultimate analysis. The third column indicates the percentage by which the pancreatic secretion is above the basal secretion after 5 hours (calculated on the control=100%). This value is a measure for the depot effect of the depot body tested. Column 4 indicates the intensification of the secretin effect, with the total pancreatic juice secretion having been given over 5 hours as compared with the control (0.9% of NaCl)=1.

Compound: O=C(NC(Cc1ccc(O)cc1)C(=O)N(CCO)CCO)c1cc(O)cc(O)c1 [3,5-Dihydroxybenzoyl-L-tyrosine-diethanolamide]
- Δ% vs. control (percentage by which the pancreatic secretion is above the basal secretion after 5 hours): 76%
- Rel. Intensity of effect over 5 hours (total pancreatic juice secretion over 5 hours as compared with control): 7.6

Compound: Bis-phloretin phosphate
- Δ% vs. control (percentage by which the pancreatic secretion is above the basal secretion after 5 hours): 56%
- Rel. Intensity of effect over 5 hours (total pancreatic juice secretion over 5 hours as compared with control): 2.5

Compound: Oc1cccc(O)c1O [Pyrogallol]
- Δ% vs. control (percentage by which the pancreatic secretion is above the basal secretion after 5 hours): 41%
- Rel. Intensity of effect over 5 hours (total pancreatic juice secretion over 5 hours as compared with control): 5.1

Compound: O=C(N[C@@H](Cc1ccc(O)cc1)C(=O)O)OCc1ccccc1 [Benzyloxycarbonyl-L-tyrosine]
- Δ% vs. control (percentage by which the pancreatic secretion is above the basal secretion after 5 hours): 7%
- Rel. Intensity of effect over 5 hours (total pancreatic juice secretion over 5 hours as compared with control): 5.9

Compound: O=C(NCCN(CCN(CCNC(=O)c1cccc(O)c1)C(=O)c1cccc(O)c1)C(=O)c1cccc(O)c1)c1cccc(O)c1 [Tetra-(3-hydroxybenzoyl-)triethylene-tetramine]
- Δ% vs. control (percentage by which the pancreatic secretion is above the basal secretion after 5 hours): 95%
- Rel. Intensity of effect over 5 hours (total pancreatic juice secretion over 5 hours as compared with control): 9.1

Compound: 2,8-Dihydroxy-3-naphthoyl-diethanolamine
- Δ% vs. control (percentage by which the pancreatic secretion is above the basal secretion after 5 hours): 77%
- Rel. Intensity of effect over 5 hours (total pancreatic juice secretion over 5 hours as compared with control): 9.1

Compound: NC(=O)[C@H](CCCCNC(=O)[C@H](Cc1ccc(O)cc1)NC(=O)OCc1ccccc1)NC(=O)[C@H](Cc1ccc(O)cc1)NC(=O)OCc1ccccc1 [Nα,Nε-Bis-(benzyloxycarbonyl-L-tyrosyl)-L-lysine-amide] (Cbz-Tyr-Lys([Tyr-Cbz])-NH2)
- Δ% vs. control (percentage by which the pancreatic secretion is above the basal secretion after 5 hours): 90%
- Rel. Intensity of effect over 5 hours (total pancreatic juice secretion over 5 hours as compared with control): 8.4

Compound: COC(=O)c1ccc(O)cc1 [4-Hydroxy-benzoic acid-methyl-ester]
- Δ% vs. control (percentage by which the pancreatic secretion is above the basal secretion after 5 hours): 15%
- Rel. Intensity of effect over 5 hours (total pancreatic juice secretion over 5 hours as compared with control): 5.3

Compound: Oc1cc(O)cc(O)c1 [Phloroglucine]
- Δ% vs. control (percentage by which the pancreatic secretion is above the basal secretion after 5 hours): 15%
- Rel. Intensity of effect over 5 hours (total pancreatic juice secretion over 5 hours as compared with control): 6.6

Compound: CCCCNC(=O)[C@H](Cc1ccc(O)cc1)NC(=O)c1ccc(O)cc1O [2,4-Dihydroxybenzoyl-L-tyrosine-n-butylamide]
- Δ% vs. control (percentage by which the pancreatic secretion is above the basal secretion after 5 hours): 87%
- Rel. Intensity of effect over 5 hours (total pancreatic juice secretion over 5 hours as compared with control): 8.7

Compound: NS(=O)(=O)c1cccc(NC(=O)c2ccccc2O)c1 [3-(2-Hydroxybenzoylamino)-benzene-sulfonamide]
- Δ% vs. control (percentage by which the pancreatic secretion is above the basal secretion after 5 hours): 81%
- Rel. Intensity of effect over 5 hours (total pancreatic juice secretion over 5 hours as compared with control): 8.1

Compound: Tris-(3-hydroxybenzoyl)-diethylene-triamine
- Δ% vs. control (percentage by which the pancreatic secretion is above the basal secretion after 5 hours): 71%
- Rel. Intensity of effect over 5 hours (total pancreatic juice secretion over 5 hours as compared with control): 8.0

Compound: NC(=O)c1cc(O)cc(O)c1 [3,5-Dihydroxybenzoic acid amide]
- Δ% vs. control (percentage by which the pancreatic secretion is above the basal secretion after 5 hours): 34%
- Rel. Intensity of effect over 5 hours (total pancreatic juice secretion over 5 hours as compared with control): 6.2

Compound: O=S(=O)([O-])c1ccc(O)cc1.[Na+] [4-Hydroxybenzene-sulfonic acid-Na]
- Δ% vs. control (percentage by which the pancreatic secretion is above the basal secretion after 5 hours): 18%
- Rel. Intensity of effect over 5 hours (total pancreatic juice secretion over 5 hours as compared with control): 2.7

Compound: Bis-(3,5-dihydroxybenzoyl)-diaminoethane
- Δ% vs. control (percentage by which the pancreatic secretion is above the basal secretion after 5 hours): 79%
- Rel. Intensity of effect over 5 hours (total pancreatic juice secretion over 5 hours as compared with control): 6.1

Compound: Tris-(4-hydroxybenzoyl)-diethylene-triamine
- Δ% vs. control (percentage by which the pancreatic secretion is above the basal secretion after 5 hours): 68%
- Rel. Intensity of effect over 5 hours (total pancreatic juice secretion over 5 hours as compared with control): 7.8

Compound: CC(=O)c1ccc(O)cc1 [4-Hydroxyacetophenone]
- Δ% vs. control (percentage by which the pancreatic secretion is above the basal secretion after 5 hours): 43%
- Rel. Intensity of effect over 5 hours (total pancreatic juice secretion over 5 hours as compared with control): 8.1

Compound: O=C(NCCO)c1ccc2ccccc2c1O [1-Hydroxy-2-naphthoic acid-ethanolamide]
- Δ% vs. control (percentage by which the pancreatic secretion is above the basal secretion after 5 hours): 74%
- Rel. Intensity of effect over 5 hours (total pancreatic juice secretion over 5 hours as compared with control): 8.0

Compound: O=C(Nc1cccc(O)c1)c1cc(O)cc(O)c1 [3,5-Dihydroxybenzoic acid-3-hydroxy-anilide]
- Δ% vs. control (percentage by which the pancreatic secretion is above the basal secretion after 5 hours): 49%
- Rel. Intensity of effect over 5 hours (total pancreatic juice secretion over 5 hours as compared with control): 6.2

Compound: O=C(O)c1ccccc1O [2-Hydroxy-benzoic acid]
- Δ% vs. control (percentage by which the pancreatic secretion is above the basal secretion after 5 hours): 6%
- Rel. Intensity of effect over 5 hours (total pancreatic juice secretion over 5 hours as compared with control): 4.5

Compound: O=C(O)c1cc(O)nc2ccccc12 [2-Hydroxy-quinoline-4-carboxylic acid]
- Δ% vs. control (percentage by which the pancreatic secretion is above the basal secretion after 5 hours): 5%
- Rel. Intensity of effect over 5 hours (total pancreatic juice secretion over 5 hours as compared with control): 5.0

Compound: Bis-(2,4-dihydroxybenzoyl-L-tyrosine)-diaminoethane
- Δ% vs. control (percentage by which the pancreatic secretion is above the basal secretion after 5 hours): 82%
- Rel. Intensity of effect over 5 hours (total pancreatic juice secretion over 5 hours as compared with control): 6.0

Compound: O=C(N[C@@H](Cc1ccc(O)cc1)C(=O)N[C@@H](Cc1ccc(O)cc1)C(=O)O)OCc1ccccc1 [Benzyloxycarbonyl-L-tyrosyl-L-tyrosine] (Cbz-Tyr-Tyr-OH)
- Δ% vs. control (percentage by which the pancreatic secretion is above the basal secretion after 5 hours): 62%
- Rel. Intensity of effect over 5 hours (total pancreatic juice secretion over 5 hours as compared with control): 7.5

Compound: O=C(O)c1cc(O)cc(O)c1 [3,5-Dihydroxybenzoic acid]
- Δ% vs. control (percentage by which the pancreatic secretion is above the basal secretion after 5 hours): 25%
- Rel. Intensity of effect over 5 hours (total pancreatic juice secretion over 5 hours as compared with control): 6.6

Compound: O=C(N[C@@H](Cc1ccc(O)cc1)C(=O)O)c1ccc(O)cc1O [2,4-Dihydroxybenzoyl-L-tyrosine]
- Δ% vs. control (percentage by which the pancreatic secretion is above the basal secretion after 5 hours): 84%

Compound: Tris-(2-hydroxybenzoyl)-diethylene-triamine
- Δ% vs. control (percentage by which the pancreatic secretion is above the basal secretion after 5 hours): 62%
- Rel. Intensity of effect over 5 hours (total pancreatic juice secretion over 5 hours as compared with control): 8.1

Compound: O=C(N[C@@H](Cc1ccc(O)cc1)C(=O)NCCCC[C@@H](NC(=O)[C@H](Cc1ccc(O)cc1)NC(=O)OCc1ccccc1)C(=O)O)OCc1ccccc1 [Nα,Nε-Bis-(benzyloxycarbonyl-L-tyrosyl)-D-lysine] (Cbz-Tyr-[dK]([Tyr-Cbz])-OH)
- Δ% vs. control (percentage by which the pancreatic secretion is above the basal secretion after 5 hours): 13%
- Rel. Intensity of effect over 5 hours (total pancreatic juice secretion over 5 hours as compared with control): 1.5

Compound: O=C(c1ccccc1)c1cccc(O)c1 [3-Hydroxy-benzophenone]
- Δ% vs. control (percentage by which the pancreatic secretion is above the basal secretion after 5 hours): 79%
- Rel. Intensity of effect over 5 hours (total pancreatic juice secretion over 5 hours as compared with control): 8.0

Compound: NC(=O)c1ccccc1O [2-Hydroxy-benzoic acid amide]
- Δ% vs. control (percentage by which the pancreatic secretion is above the basal secretion after 5 hours): 51%
- Rel. Intensity of effect over 5 hours (total pancreatic juice secretion over 5 hours as compared with control): 8.0

Compound: Bis-(3-benzoylpropionyl-L-tyrosine)-diaminoethane
- Δ% vs. control (percentage by which the pancreatic secretion is above the basal secretion after 5 hours): 60%
- Rel. Intensity of effect over 5 hours (total pancreatic juice secretion over 5 hours as compared with control): 3.7

Compound: Phloretin-3,5-dimethylphenyl phosphate
- Δ% vs. control (percentage by which the pancreatic secretion is above the basal secretion after 5 hours): 68%
- Rel. Intensity of effect over 5 hours (total pancreatic juice secretion over 5 hours as compared with control): 3.7

Compound: O=C(NCCN(CCN(CCNC(=O)c1ccccc1O)C(=O)c1ccccc1O)C(=O)c1ccccc1O)c1ccccc1O [Tetra-(2-hydroxybenzoyl)-triethylene-tetramine]
- Δ% vs. control (percentage by which the pancreatic secretion is above the basal secretion after 5 hours): 91%
- Rel. Intensity of effect over 5 hours (total pancreatic juice secretion over 5 hours as compared with control): 9.0

Compound: O=C(NCCNC(=O)c1ccc(O)cc1O)c1ccc(O)cc1O [Bis-(2,4-dihydroxybenzoyl-)-diaminoethane]
- Δ% vs. control (percentage by which the pancreatic secretion is above the basal secretion after 5 hours): 69%
- Rel. Intensity of effect over 5 hours (total pancreatic juice secretion over 5 hours as compared with control): 6.5

Compound: O=C(c1ccc2ccccc2c1O)N(CCO)CCO [1-Hydroxy-2-naphthoic acid-diethanolamide]
- Δ% vs. control (percentage by which the pancreatic secretion is above the basal secretion after 5 hours): 79%
- Rel. Intensity of effect over 5 hours (total pancreatic juice secretion over 5 hours as compared with control): 8.1

Compound: Tris-(2,8-dihydroxy-3-naphthoyl)-diethylene-triamine
- Δ% vs. control (percentage by which the pancreatic secretion is above the basal secretion after 5 hours): 94%
- Rel. Intensity of effect over 5 hours (total pancreatic juice secretion over 5 hours as compared with control): 9.4

Compound: O=C(O)c1ccc(O)cc1O [2,4-Dihydroxybenzoic acid]
- Δ% vs. control (percentage by which the pancreatic secretion is above the basal secretion after 5 hours): 28%
- Rel. Intensity of effect over 5 hours (total pancreatic juice secretion over 5 hours as compared with control): 7.1

Compound: O=C(O)c1cccc(O)c1 [3-Hydroxybenzoic acid]
- Δ% vs. control (percentage by which the pancreatic secretion is above the basal secretion after 5 hours): 47%
- Rel. Intensity of effect over 5 hours (total pancreatic juice secretion over 5 hours as compared with control): 4.0

Compound: Bis-(2,4-dihydroxybenzoyl)-1,4-diaminobutane
- Δ% vs. control (percentage by which the pancreatic secretion is above the basal secretion after 5 hours): 83%
- Rel. Intensity of effect over 5 hours (total pancreatic juice secretion over 5 hours as compared with control): 6.7
